Test results: publication PMC11067372, “Evaluation of the antiplasmodial efficacy of synthetic 2,5-diphenyloxazole analogs of compounds naturally derived from Oxytropis lanata” (International Journal for Parasitology: Drugs and Drug …, 2024)
Like-named read-outs stand apart in the source and are kept apart here.

What was measured:
[1] = tested on: P. falciparum K1; experiment: In vitro inhibition of P. falciparum K1 (SYBR Green I-based fluorescence assay); type: cell-based; details: Plasmodium falciparum; multidrug-resistant strain K1; 72 h incubation; average ± SD, three independent experiments; read-out: IC50 P. falciparum K1
Experimental: The cultures were maintained in an incubator under specific conditions: 37 °C under 5% CO2 and 5% O2.
(§1) The D-sorbitol method (CAS: 50-70-4, Wako, Osaka, Japan) was employed to synchronize parasites, resulting in the attainment of ≥90% ring-stage parasites. These synchronized parasites were then utilized for the experiments within a 2-h window. The assay was performed as follows. First, 50 μL of synchronized parasites with 0.5% parasitemia and 2% hematocrit were added to individual wells of a 96-well plate. Then, 50 μL of the test compounds was introduced to each well. […] Wells containing only test compounds and erythrocytes were included for background correction. […] After the designated incubation time, 100 μL of lysis buffer containing 0.02% (v/v) SYBR Green I was added to each well, the contents of the well were mixed by pipetting, and the plate was incubated in the dark at room temperature for 2 h. […] This assay was repeated four times at each concentration, and the resulting inhibitory values represent the average from three independent trials.
The IC50 or CC50 values were determined from three independent experiments by plotting the logarithmic concentration of the compound against the percent parasite inhibition or cell growth inhibition, respectively. Nonlinear regression analysis was conducted using GraphPad Prism 10 (GraphPad Software, Inc., La Jolla, CA, USA). Comparisons between groups were evaluated using either one-way or two-way ANOVA followed by Tukey's or Fisher's multiple comparisons tests. […] The meaning of each symbol is specified in the corresponding figure legend alongside the name of the employed test.

[2] = tested on: P. falciparum 3D7; experiment: Stage-specific microscopy examination (ring, trophozoite, schizont); type: cell-based, Plasmodium falciparum; details: for Inhibition of the life cycle at 10- and 1-fold IC50: 24 h; for Parasite morphology after 24 h treatment: ring, trophozoite, schizont stages, artemisinin and chloroquine at all concentrations, Compounds 31 and 32 at 100 times IC50
Experimental: (§2) To ensure uniformity, the parasites underwent a rigorous synchronization process using a two-step sorbitol treatment procedure. This synchronized parasite population was harnessed within a 2-h window for the ring stage, 8–10 h for the trophozoite stage, and 24–26 h for the schizont stage. Subsequent to sorbitol treatment, early trophozoites could be obtained within 6–8 h after the initial sorbitol treatment (within 20 h of development), while early schizonts could be obtained after an additional 16 h of incubation (within 36 h of development). Beyond 36 h, the schizonts mature, causing the rupture of red blood cells (RBCs) and the consequent release of merozoites, which promptly infect new RBCs.
The negative control group consisted of cultures treated solely with complete medium and was designated the no treatment (NT) group. This analysis was repeated three times at each concentration. Following a 24-h incubation period, the culture in a 96-well plate was centrifuged at 1300 g for 5 min to settle down the iRBC; then, the supernatants were removed, and the iRBCs were washed with fresh media at the same volume as the initial culture. The centrifugation and washing were repeated 3 times, allowing the compound to be diluted by approximately 1000 times. Subsequently, thin blood smears from each treatment group were prepared using 1 μL of settled iRBCs. The proportion of parasites affected by the drug, including those with both abnormal and retained morphologies, was calculated by examining 100 parasites and counting the number displaying irregular development. Subsequently, the number of abnormal parasites was divided by the total count and then multiplied by 100 to obtain a percentage. The parameters used to define normal and abnormal morphologies can be found in Table S3 and Fig. S1.

[3] = tested on: P. falciparum 3D7; experiment: Stage-specific assay on ring and schizont stages (SYBR Green I, 24 h); type: cell-based, Plasmodium falciparum; details: eight concentrations from 100-fold IC50
Experimental: as §2
Wells containing only the test compounds and erythrocytes were included to correct for background activity. The 96-well plates were incubated for 24 h at 37 °C in an atmosphere of 5% CO2 and 5% O2. The growth of P. falciparum 3D7 was detected using a SYBR Green I-based fluorescence assay.

[4] = Hemolysis rate; type: cell-based; details: erythrocytes (red blood cells)
[5] = In vitro toxicity to human cells (cell viability assay); type: cell-based; details: human foreskin fibroblasts (HFFs), average ± SD, three independent experiments
Experimental: HFF cells are selected for cytotoxicity testing in this study, providing a physiologically relevant model for the evaluation of drug interactions with human cells. […] This designation makes them a suitable model for the investigation of cellular processes and their sensitivity to toxic substances, which is crucial for the early identification of potential adverse effects of drugs during the development process.
The IC50 or CC50 values were determined from three independent experiments by plotting the logarithmic concentration of the compound against the percent parasite inhibition or cell growth inhibition, respectively. Nonlinear regression analysis was conducted using GraphPad Prism 10 (GraphPad Software, Inc., La Jolla, CA, USA). Comparisons between groups were evaluated using either one-way or two-way ANOVA followed by Tukey's or Fisher's multiple comparisons tests. A p-value of <0.05 was considered to indicate statistical significance and is denoted by an asterisk or a symbol. The meaning of each symbol is specified in the corresponding figure legend alongside the name of the employed test.

[6] = tested on: P. yoelii 17XNL; type: in vivo; details: C57BL/6 mice, P. yoelii 17XNL; for Parasitemia compared to the untreated control group: 20 mg/kg daily over 10 days; for Body weight or hematocrit levels / Mortality / Peak of parasitemia, trial 1 / Peak of parasitemia, trial 2: 20 mg/kg i.p. once daily for ten days; for Peak of parasitemia, trial 1: untreated 21.7%; for Peak of parasitemia, trial 2: untreated 28.3%
Experimental: Male C57BL/6 mice, aged eight weeks, were obtained from Japan CLEA (Tokyo, Japan) and housed with six per cage in each group. These mice were kept under conditions of 24 °C, 50% relative humidity, and a light-dark cycle of 8 a.m. to 8 p.m. Access to drinking water and food (CLEA Rodent Diet CE-2; Japan CLEA, Tokyo, Japan) was unrestricted. Prior to experimentation, P. yoelii 17XNL was recovered from cryopreserved erythrocyte stocks via passage in mice. […]. Parasitemia levels were evaluated […] by collecting 2 μL of blood from the mouse tail for thin blood smear preparation. Treatment was initiated upon reaching a parasitemia level of 1%. […]. Parasitemia in infected mice was observed daily by preparing Giemsa-stained thin blood smears (up to 30 dpi). Hematocrit levels were measured every other day using a Celltac-α MEK-6550 (Nihon Kohden, Tokyo, Japan), with 10 μL of blood collected from the mouse tail for each assessment. The animals were handled and treated in accordance with the Guide for the Care and Use of Laboratory Animals by the Ministry of Education, Culture, Sports, Science, and Technology, Japan. Ethical permission for the animal experiment protocols was secured under permit numbers 21–35 and 23–90 from the ethical committee of Obihiro University of Agriculture and Veterinary Medicine.
The median point within this range was selected to maintain a balance between efficacy and safety. Furthermore, a modified Peter's suppression test was utilized to assess the efficacy of antimalarial drugs ([Ager, 1984]; [Peters et al., 1975]). The treatment and observation period were initially set for 4 days. […] […]. […] These findings highlight the effect of the 20 mg/kg/day dosage of Compounds 31 and 32 in reducing parasitemia without causing side effects.

[7] = tested on: P. falciparum 3D7; experiment: IC50 speed assay (24, 48, 72 h); type: cell-based, Plasmodium falciparum; details: P. falciparum 3D7; for Speed of action (IC50 speed assay): IC50 at 24, 48, 72 h compared; for IC50: Plasmodium falciparum
Experimental: as §1

[8] = 24 h incubation, read-out: IC50 24 h
[9] = 48 h incubation, read-out: IC50 48 h
[10] = 72 h incubation, read-out: IC50 72 h

| Structure (SMILES) | IC50 [1] [µM] | Inhibition of the life cycle at 10- and 1-fold IC50 [2] | Parasite morphology after 24 h treatment [2] | Stage specificity (ring and schizont stages) [3] | hemolysis at 1000 µM [4] [%] | CC50 [5] [µM] | Parasitemia compared to the untreated control group [6] | Body weight or hematocrit levels [6] | Mortality [6] | Peak of parasitemia, trial 1 [6] [%] | Peak of parasitemia, trial 2 [6] [%] | Speed of action (IC50 speed assay) [7] | IC50 [7, 8] [µM] | IC50 [7, 9] [µM] | IC50 [7, 10] [µM] |
| --- | --- | --- | --- | --- | --- | --- | --- | --- | --- | --- | --- | --- | --- | --- | --- |
| COc1cccc(-c2ncc(-c3ccccc3O)o2)c1OC [Compound 31, 2-(2′,3′-dimethoxyphenyl)-5-(2″-hydroxyphenyl)oxazole] | 2.66 ± 1.15 | only partial inhibition of the life cycle | abnormal phenotype of ring-stage parasites | classic slow-acting profile, which only gains significant activity at elevated concentrations | < 3 | > 336 | significant reduction in parasitemia | nor were reductions in body weight or hematocrit levels observed | no instances of mortality | 12.7 | 15.8 | slow-acting | 45.2 ± 10.6 | 18.8 ± 1.86 | 8.37 ± 1.28 |
| COc1cccc(-c2ncc(-c3ccccc3OCc3ccccc3)o2)c1OC [Compound 32, 2-(2′,3′-dimethoxyphenyl)-5-(2″-benzyloxyphenyl)oxazole] | 4.37 ± 1.7 | only partial inhibition of the life cycle | abnormal phenotype of ring-stage parasites | effect on the ring and schizont stages is comparable to those positive controls | < 3 | > 258 | significant reduction in parasitemia | nor were reductions in body weight or hematocrit levels observed | no instances of mortality | 12.7 | 14.0 | slow-acting | 31.2 ± 4.13 | 33.4 ± 2.67 | 6.25 ± 1.39 |
